Converted amounts (≈) assume the structure as drawn. The source made the active and inactive calls. No cut-off for these calls is given here.
Tests used:
[1] = system: Staphylococcus epidermidis; assay: Antibacterial activity against erythromycin-resistant Staphylococcus epidermidis 19-6 assessed as inhibition of visible bacterial growth incubated for 18 hrs by broth microdilution method; type: functional
[2] = system: Haemophilus influenzae; assay: Antibacterial activity against Haemophilus influenzae HIN 19-18 assessed as inhibition of bacterial growth incubated for 20 to 24 hrs by CLSI based broth microdilution method; type: functional; conditions: HIN 19-18, time 20-24 hrs
[3] = system: Streptococcus pneumoniae; assay: Antibacterial activity against erythromycin-resistant Streptococcus pneumoniae SPN19-14 assessed as inhibition of visible bacterial growth incubated for 18 hrs by broth microdilution method; type: functional
[4] = system: Staphylococcus epidermidis; assay: Antibacterial activity against erythromycin-resistant Staphylococcus epidermidis 19-4 assessed as inhibition of visible bacterial growth incubated for 18 hrs by broth microdilution method; type: functional
[5] = Cytotoxicity against mouse AML12 cells assessed as reduction in cell viability incubated for 48 hrs by MTT assay; type: toxicity, cell-based
[6] = system: Streptococcus agalactiae; assay: Antibacterial activity against erythromycin-resistant Streptococcus agalactiae 19-9 assessed as inhibition of visible bacterial growth incubated for 18 hrs by broth microdilution method; type: functional
[7] = system: Moraxella catarrhalis; assay: Antibacterial activity against Moraxella catarrhalis BCA 19-6 assessed as inhibition of bacterial growth incubated for 24 hrs by CLSI based broth microdilution method; type: functional; conditions: Moraxella catarrhalis, BCA 19-6, 24 h, read-out: MIC
[8] = system: Streptococcus pneumoniae; assay: Antibacterial activity against erythromycin-resistant Streptococcus pneumoniae SPN19-13 assessed as inhibition of visible bacterial growth incubated for 18 hrs by broth microdilution method; type: functional
[9] = system: Moraxella catarrhalis; assay: Antibacterial activity against Moraxella catarrhalis BCA 19-31 assessed as inhibition of bacterial growth incubated for 24 hrs by CLSI based broth microdilution method; type: functional; conditions: BCA 19-31, 24 h
[10] = system: Streptococcus agalactiae; assay: Antibacterial activity against erythromycin-resistant Streptococcus agalactiae 19-8 assessed as inhibition of visible bacterial growth incubated for 18 hrs by broth microdilution method; type: functional
[11] = system: Streptococcus pyogenes; assay: Antibacterial activity against erythromycin-resistant Streptococcus pyogenes ATCC 19615 assessed as inhibition of visible bacterial growth incubated for 18 hrs by broth microdilution method; type: functional
[12] = system: Staphylococcus epidermidis; assay: Antibacterial activity against erythromycin-resistant Staphylococcus epidermidis 19-8 assessed as inhibition of visible bacterial growth incubated for 18 hrs by broth microdilution method; type: functional
[13] = system: Staphylococcus epidermidis; assay: Antibacterial activity against erythromycin-resistant Staphylococcus epidermidis 19-11 assessed as inhibition of visible bacterial growth incubated for 18 hrs by broth microdilution method; type: functional
[14] = system: Enterococcus faecium; assay: Antibacterial activity against vancomycin-resistant Enterococcus faecium assessed as inhibition of visible bacterial growth; type: functional
[15] = system: Staphylococcus epidermidis; assay: Antibacterial activity against erythromycin-resistant Staphylococcus epidermidis 19-9 assessed as inhibition of visible bacterial growth incubated for 18 hrs by broth microdilution method; type: functional
[16] = system: Enterococcus faecalis; assay: Antibacterial activity against Enterococcus faecalis ATCC 51575 assessed as inhibition of visible bacterial growth; type: functional, organism-based
[17] = system: Staphylococcus epidermidis; assay: Antibacterial activity against erythromycin-resistant Staphylococcus epidermidis 19-5 assessed as inhibition of visible bacterial growth incubated for 18 hrs by broth microdilution method; type: functional
[18] = system: Streptococcus pneumoniae; assay: Antibacterial activity against erythromycin-resistant Streptococcus pneumoniae SPN19-8 assessed as inhibition of visible bacterial growth incubated for 18 hrs by broth microdilution method; type: functional
[19] = system: Moraxella catarrhalis; assay: Antibacterial activity against Moraxella catarrhalis BCA 19-5 assessed as inhibition of bacterial growth incubated for 24 hrs by CLSI based broth microdilution method; type: functional; conditions: Moraxella catarrhalis, BCA 19-5, 24 h, read-out: MIC
[20] = system: Streptococcus pneumoniae; assay: Potency index, ratio of telithromycin MIC to test compound MIC for antibacterial activity against Streptococcus pneumoniae SPN19-14 assessed as inhibition of visible bacterial growth incubated for 18 hrs by broth microdilution method; type: functional
[21] = system: Streptococcus pneumoniae; assay: Potency index, ratio of telithromycin MIC to test compound MIC for antibacterial activity against Streptococcus pneumoniae SPN19-13 assessed as inhibition of visible bacterial growth incubated for 18 hrs by broth microdilution method; type: functional
[22] = system: Haemophilus influenzae; assay: Antibacterial activity against Haemophilus influenzae HIN 19-15 assessed as inhibition of bacterial growth incubated for 20 to 24 hrs by CLSI based broth microdilution method; type: functional; conditions: time 20-24 hrs
[23] = system: Staphylococcus epidermidis; assay: Potency index, ratio of telithromycin MIC to test compound MIC for antibacterial activity against erythromycin-resistant Staphylococcus epidermidis 19-4 assessed as inhibition of visible bacterial growth incubated for 18 hrs by broth microdilution method; type: functional
[24] = system: Staphylococcus epidermidis; assay: Potency index, ratio of telithromycin MIC to test compound MIC for antibacterial activity against erythromycin-resistant Staphylococcus epidermidis 19-5 assessed as inhibition of visible bacterial growth incubated for 18 hrs by broth microdilution method; type: functional
[25] = system: Staphylococcus epidermidis; assay: Potency index, ratio of telithromycin MIC to test compound MIC for antibacterial activity against erythromycin-resistant Staphylococcus epidermidis 19-9 assessed as inhibition of visible bacterial growth incubated for 18 hrs by broth microdilution method; type: functional
[26] = system: Staphylococcus epidermidis; assay: Potency index, ratio of telithromycin MIC to test compound MIC for antibacterial activity against erythromycin-resistant Staphylococcus epidermidis 19-6 assessed as inhibition of visible bacterial growth incubated for 18 hrs by broth microdilution method; type: functional
[27] = system: Staphylococcus epidermidis; assay: Potency index, ratio of telithromycin MIC to test compound MIC for antibacterial activity against erythromycin-resistant Staphylococcus epidermidis 19-11 assessed as inhibition of visible bacterial growth incubated for 18 hrs by broth microdilution method; type: functional
[28] = system: Streptococcus pneumoniae; assay: Potency index, ratio of telithromycin MIC to test compound MIC for antibacterial activity against Streptococcus pneumoniae SPN19-8 assessed as inhibition of visible bacterial growth incubated for 18 hrs by broth microdilution method; type: functional
[29] = system: Staphylococcus epidermidis; assay: Potency index, ratio of telithromycin MIC to test compound MIC for antibacterial activity against erythromycin-resistant Staphylococcus epidermidis 19-8 assessed as inhibition of visible bacterial growth incubated for 18 hrs by broth microdilution method; type: functional
[30] = system: Escherichia coli; assay: Antibacterial activity against Escherichia coli ATCC 35218 assessed as inhibition of visible bacterial growth; type: functional, organism-based
[31] = system: Haemophilus influenzae; assay: Antibacterial activity against Haemophilus influenzae HIN 20-18 assessed as inhibition of bacterial growth incubated for 20 to 24 hrs by CLSI based broth microdilution method; type: functional; conditions: time 20-24 hrs
[32] = system: Staphylococcus aureus; assay: Antibacterial activity against Staphylococcus aureus ATCC 700699 assessed as inhibition of visible bacterial growth; type: functional

Compound	MIC [1] [µg/mL]	MIC [2] [µg/mL]	MIC [3] [µg/mL]	MIC [4] [µg/mL]	CC50 at 48 h [5] [µM]	MIC [6] [µg/mL]	MIC [7] [µg/mL]	MIC [8] [µg/mL]	MIC [9] [µg/mL]	MIC [10] [µg/mL]	MIC [11] [µg/mL]	MIC [12] [µg/mL]	MIC [13] [µg/mL]	MIC [14] [µg/mL]	MIC [15] [µg/mL]	MIC [17] [µg/mL]	MIC [18] [µg/mL]	MIC [19] [µg/mL]	MIC [22] [µg/mL]	MIC [32] [µg/mL]	further results
CC[C@H]1OC(=O)[C@@](C)(F)C(=O)[C@H](C)[C@@H](O[C@@H]2O[C@H](C)C[C@H](N(C)C)[C@H]2O)[C@](C)(OC)C[C@@H](C)C(=O)[C@H](C)[C@H]2N(CCCOC(=O)Nc3ccc(C(C)C)cc3)C(=O)O[C@]12C	0.25 (≈ 0.294 µM)	16 (≈ 18.8 µM)	1 (≈ 1.18 µM)	0.125 (≈ 0.147 µM)	25.5	4 (≈ 4.71 µM)	0.25 (≈ 0.294 µM)	1 (≈ 1.18 µM)	1 (≈ 1.18 µM)	< 0.03	< 0.03	< 0.03	0.25 (≈ 0.294 µM)	16 (≈ 18.8 µM)	1 (≈ 1.18 µM)	< 0.03	2 (≈ 2.35 µM)	0.5 (≈ 0.588 µM)	–	–	Activity [16]: Active
CC[C@H]1OC(=O)[C@@](C)(F)C(=O)[C@H](C)[C@@H](O[C@@H]2O[C@H](C)C[C@H](N(C)C)[C@H]2O)[C@](C)(OC)C[C@@H](C)C(=O)[C@H](C)[C@H]2N(CCCOC(=O)Nc3cccc4ccccc34)C(=O)O[C@]12C	< 0.03	4 (≈ 4.66 µM)	< 0.03	< 0.03	29.4	< 0.03	< 0.03	< 0.03	< 0.03	< 0.03	< 0.03	< 0.03	< 0.03	16 (≈ 18.6 µM)	0.125 (≈ 0.146 µM)	< 0.03	< 0.03	< 0.03	4 (≈ 4.66 µM)	–	Ratio [20]: <4; Ratio [21]: <4; Ratio [23]: 4; Ratio [24]: 4; Ratio [25]: 4; Ratio [26]: 4; Ratio [27]: 4; Ratio [28]: <4; Ratio [29]: 4; Activity [30]: Active
CCOc1ccccc1NC(=O)OCCCN1C(=O)O[C@]2(C)[C@@H](CC)OC(=O)[C@@](C)(F)C(=O)[C@H](C)[C@@H](O[C@@H]3O[C@H](C)C[C@H](N(C)C)[C@H]3O)[C@](C)(OC)C[C@@H](C)C(=O)[C@H](C)[C@@H]12	0.125 (≈ 0.147 µM)	2 (≈ 2.35 µM)	0.06 (≈ 0.0704 µM)	0.06 (≈ 0.0704 µM)	> 100	0.25 (≈ 0.293 µM)	0.125 (≈ 0.147 µM)	0.06 (≈ 0.0704 µM)	0.03 (≈ 0.0352 µM)	–	< 0.03	0.06 (≈ 0.0704 µM)	0.16 (≈ 0.188 µM)	–	0.5 (≈ 0.587 µM)	< 0.03	0.125 (≈ 0.147 µM)	0.125 (≈ 0.147 µM)	4 (≈ 4.69 µM)	16 (≈ 18.8 µM)	MIC [31]: 8 µg/mL (≈ 9.39 µM)
CC[C@H]1OC(=O)[C@@](C)(F)C(=O)[C@H](C)[C@@H](O[C@@H]2O[C@H](C)C[C@H](N(C)C)[C@H]2O)[C@](C)(OC)C[C@@H](C)C(=O)[C@H](C)[C@H]2N(CCCOC(=O)Nc3ccc4ccccc4c3)C(=O)O[C@]12C	< 0.03	2 (≈ 2.33 µM)	< 0.03	< 0.03	18.5	0.5 (≈ 0.583 µM)	< 0.03	< 0.03	< 0.03	< 0.03	< 0.03	< 0.03	< 0.03	16 (≈ 18.6 µM)	0.125 (≈ 0.146 µM)	< 0.03	0.25 (≈ 0.291 µM)	< 0.03	8 (≈ 9.32 µM)	16 (≈ 18.6 µM)	Ratio [20]: <4; Ratio [21]: <4; Ratio [23]: 4; Ratio [24]: 4; Ratio [25]: 4; Ratio [26]: 4; Ratio [27]: 4; Ratio [28]: <4; Ratio [29]: 4
CC[C@H]1OC(=O)[C@H](C)C(=O)[C@H](C)[C@@H](O[C@@H]2O[C@H](C)C[C@H](N(C)C)[C@H]2O)[C@](C)(OC)C[C@@H](C)C(=O)[C@H](C)[C@H]2N(CCCCn3cnc(-c4cccnc4)c3)C(=O)O[C@]12C [TELITHROMYCIN]	64 (≈ 78.8 µM)	4 (≈ 4.93 µM)	0.25 (≈ 0.308 µM)	> 64	> 100	0.125 (≈ 0.154 µM)	0.25 (≈ 0.308 µM)	0.25 (≈ 0.308 µM)	0.25 (≈ 0.308 µM)	< 0.03	< 0.03	> 64	0.25 (≈ 0.308 µM)	–	0.5 (≈ 0.616 µM)	0.25 (≈ 0.308 µM)	0.5 (≈ 0.616 µM)	0.25 (≈ 0.308 µM)	4 (≈ 4.93 µM)	16 (≈ 19.7 µM)	–
CC[C@H]1OC(=O)[C@@](C)(F)C(=O)[C@H](C)[C@@H](O[C@@H]2O[C@H](C)C[C@H](N(C)C)[C@H]2O)[C@](C)(OC)C[C@@H](C)C(=O)[C@H](C)[C@H]2N(CCCOC(=O)Nc3ccc(C(F)(F)F)cc3)C(=O)O[C@]12C	0.125 (≈ 0.143 µM)	–	0.125 (≈ 0.143 µM)	0.03 (≈ 0.0342 µM)	19.6	1 (≈ 1.14 µM)	0.125 (≈ 0.143 µM)	0.125 (≈ 0.143 µM)	0.06 (≈ 0.0685 µM)	–	< 0.03	0.06 (≈ 0.0685 µM)	< 0.03	16 (≈ 18.3 µM)	0.25 (≈ 0.285 µM)	< 0.03	0.125 (≈ 0.143 µM)	0.125 (≈ 0.143 µM)	4 (≈ 4.57 µM)	16 (≈ 18.3 µM)	–
CC[C@H]1OC(=O)[C@@](C)(F)C(=O)[C@H](C)[C@@H](O[C@@H]2O[C@H](C)C[C@H](N(C)C)[C@H]2O)[C@](C)(OC)C[C@@H](C)C(=O)[C@H](C)[C@H]2N(CCCOC(=O)Nc3cccc(F)c3)C(=O)O[C@]12C	< 0.03	4 (≈ 4.84 µM)	< 0.03	< 0.03	33.7	0.06 (≈ 0.0726 µM)	< 0.03	< 0.03	< 3	< 0.03	< 0.03	< 0.03	< 0.03	–	< 0.03	< 0.03	< 0.03	< 0.03	8 (≈ 9.69 µM)	–	Ratio [20]: <4; Ratio [21]: <4; Ratio [23]: 4; Ratio [24]: 4; Ratio [25]: 4; Ratio [26]: 4; Ratio [27]: 4; Ratio [28]: <4; Ratio [29]: 4; Activity [30]: Active

— ChEMBL document CHEMBL5543097, “Synthesis and structure-activity relationships of novel 14-membered 2-fluoro ketolides with structural modification at the C11 position” (Eur J Med Chem, 2024)
